Laboratory results as given in patent US20090088461A1, “Methods of Treating or Preventing Cardiac Disease Associated With a High Fat Diet” (Synvista Therapeutics, Inc., priority 2007, published 2009).
Read-outs that look alike come from different tables or passages of the source.

Legend:
[1] = system: IgG crosslinked to circulating red blood cells; assay: RBC-IgG assay; assay type: in vivo; conditions: streptozotocin-induced diabetic rats, dosed orally 10 mg/kg body weight, 19 days
Excerpt: 2. […] 3. […] 4. […] 5. […] 6. […] 7. […] 8.
10. […] 11. […] 12. […] 13. […] 14. […] 15. […] 16. […] 17.

[2] = molecular target: T1, AGE-BSA previously crosslinked to the collagen (Bos taurus, UniProt P02769); assay: Cross-Link Breaking Assay (sandwich enzyme immunoassay); assay type: biochemical; conditions: for Breaking Anti-AGE: anti-AGE antibody; for Breaking Anti-BSA: anti-BSA antibody
T1 construct: Bovine Serum Albumin (Type V), (BSA) Calbiochem; purchased Calbiochem (BSA Type V); Collaborative Biomedical Products (Biocoat collagen plates)
T1 sequence (P02769 25-607): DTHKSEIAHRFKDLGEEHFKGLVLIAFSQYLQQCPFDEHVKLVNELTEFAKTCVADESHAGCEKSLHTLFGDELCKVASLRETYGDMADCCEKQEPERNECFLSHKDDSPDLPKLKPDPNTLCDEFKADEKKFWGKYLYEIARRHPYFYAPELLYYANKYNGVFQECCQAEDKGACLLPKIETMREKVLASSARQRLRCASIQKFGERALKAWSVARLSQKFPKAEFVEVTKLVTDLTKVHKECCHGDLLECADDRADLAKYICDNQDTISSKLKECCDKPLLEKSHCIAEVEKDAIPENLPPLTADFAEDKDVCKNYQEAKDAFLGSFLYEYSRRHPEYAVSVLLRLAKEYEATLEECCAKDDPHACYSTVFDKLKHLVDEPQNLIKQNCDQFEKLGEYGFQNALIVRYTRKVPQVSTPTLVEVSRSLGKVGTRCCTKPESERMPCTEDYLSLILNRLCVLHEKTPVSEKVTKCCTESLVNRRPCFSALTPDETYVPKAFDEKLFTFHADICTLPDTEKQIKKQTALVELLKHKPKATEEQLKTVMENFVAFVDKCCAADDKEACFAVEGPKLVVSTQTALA
T1 sequence (P02454 152-1207 partner limits assumed): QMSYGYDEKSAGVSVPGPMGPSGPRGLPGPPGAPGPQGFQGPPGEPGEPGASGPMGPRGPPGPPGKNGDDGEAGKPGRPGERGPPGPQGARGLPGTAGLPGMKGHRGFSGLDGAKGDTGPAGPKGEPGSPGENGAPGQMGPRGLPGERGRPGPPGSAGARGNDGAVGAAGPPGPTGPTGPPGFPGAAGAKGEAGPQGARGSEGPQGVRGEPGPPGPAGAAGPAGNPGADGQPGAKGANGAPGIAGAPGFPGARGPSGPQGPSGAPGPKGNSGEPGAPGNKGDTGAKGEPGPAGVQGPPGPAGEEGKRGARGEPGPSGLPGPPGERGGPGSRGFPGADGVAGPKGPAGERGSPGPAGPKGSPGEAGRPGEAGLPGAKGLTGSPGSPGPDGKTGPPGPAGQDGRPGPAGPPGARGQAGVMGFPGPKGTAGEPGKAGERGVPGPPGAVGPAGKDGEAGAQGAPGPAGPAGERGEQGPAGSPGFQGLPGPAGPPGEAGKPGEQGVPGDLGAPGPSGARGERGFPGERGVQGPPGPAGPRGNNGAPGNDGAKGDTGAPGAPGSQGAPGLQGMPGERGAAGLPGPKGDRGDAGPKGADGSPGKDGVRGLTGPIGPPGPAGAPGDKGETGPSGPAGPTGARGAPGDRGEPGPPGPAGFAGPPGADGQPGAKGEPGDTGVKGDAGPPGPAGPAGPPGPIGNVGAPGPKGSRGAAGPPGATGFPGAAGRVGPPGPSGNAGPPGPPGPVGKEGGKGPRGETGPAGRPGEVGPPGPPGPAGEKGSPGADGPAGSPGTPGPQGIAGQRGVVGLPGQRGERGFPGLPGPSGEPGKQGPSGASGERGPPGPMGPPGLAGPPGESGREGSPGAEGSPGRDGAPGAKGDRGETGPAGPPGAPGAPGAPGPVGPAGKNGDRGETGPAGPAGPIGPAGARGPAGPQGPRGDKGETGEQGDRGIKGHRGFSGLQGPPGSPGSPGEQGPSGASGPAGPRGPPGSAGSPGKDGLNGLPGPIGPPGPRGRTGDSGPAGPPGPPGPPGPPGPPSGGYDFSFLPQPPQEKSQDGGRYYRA
T1 sequence (P02466 86-1125 partner limits assumed): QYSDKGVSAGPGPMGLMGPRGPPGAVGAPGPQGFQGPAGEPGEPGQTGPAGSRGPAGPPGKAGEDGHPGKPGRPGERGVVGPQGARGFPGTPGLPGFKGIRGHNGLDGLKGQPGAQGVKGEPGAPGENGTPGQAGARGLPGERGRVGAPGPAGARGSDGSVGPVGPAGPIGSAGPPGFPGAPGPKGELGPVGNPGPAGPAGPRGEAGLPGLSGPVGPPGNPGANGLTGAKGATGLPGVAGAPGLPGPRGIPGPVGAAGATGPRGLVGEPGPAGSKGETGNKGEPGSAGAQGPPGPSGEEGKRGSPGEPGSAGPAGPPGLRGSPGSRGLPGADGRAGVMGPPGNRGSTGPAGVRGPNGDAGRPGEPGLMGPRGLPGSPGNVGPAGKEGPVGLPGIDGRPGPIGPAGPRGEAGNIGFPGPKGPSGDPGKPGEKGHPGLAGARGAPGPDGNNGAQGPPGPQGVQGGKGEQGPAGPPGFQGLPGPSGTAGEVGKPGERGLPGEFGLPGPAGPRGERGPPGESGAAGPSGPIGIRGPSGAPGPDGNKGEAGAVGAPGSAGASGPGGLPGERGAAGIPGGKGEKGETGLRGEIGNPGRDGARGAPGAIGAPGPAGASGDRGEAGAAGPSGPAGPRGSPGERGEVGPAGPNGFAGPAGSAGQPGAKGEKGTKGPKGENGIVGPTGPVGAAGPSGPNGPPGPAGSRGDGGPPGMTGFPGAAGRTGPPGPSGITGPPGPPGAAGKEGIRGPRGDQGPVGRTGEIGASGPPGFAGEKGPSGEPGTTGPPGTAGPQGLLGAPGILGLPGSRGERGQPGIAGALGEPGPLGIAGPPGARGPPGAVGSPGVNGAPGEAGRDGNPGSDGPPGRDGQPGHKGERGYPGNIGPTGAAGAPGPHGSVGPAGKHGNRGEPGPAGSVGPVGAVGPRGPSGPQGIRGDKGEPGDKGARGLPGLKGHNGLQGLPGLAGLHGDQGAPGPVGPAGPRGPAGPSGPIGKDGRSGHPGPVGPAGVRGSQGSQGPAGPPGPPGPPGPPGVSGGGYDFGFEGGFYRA
Method: The present invention also involves a novel sandwich enzyme immunoassay used to ascertain the ability of test compounds to “break” or reverse already formed advanced glycosylation endproducts by detecting the breaking of AGE (Advanced glycosylation endproduct) moieties from AGE-crosslinked protein. This assay comprises:
a) incubation of AGE-modified bovine serum albumin (AGE BSA) on collagen-coated wells of microtiter plates for a period of 2-6 hours' at a temperature of 37° C.
b) washing of the wells with PBS-Tween;
c) application of the test compounds to the washed wells of step b;
d) incubation of the test compounds applied to the washed wells for an additional 12-24 hours at a temperature of about 37° C.; and
e) detection of the AGE-breaking using an antibody raised against AGE-ribonuclease or cross-link breaking with an antibody against BSA.
In order to ascertain the ability of the compounds of the instant invention to “break” or reverse already formed advanced glycosylation endproducts, a novel sandwich enzyme immunoassay was developed which detects breaking of AGE (Advanced glycosylation endproduct) moieties from AGE-crosslinked protein. The assay utilizes collagen-coated 96 well microtiter plates that are obtained commercially. […] Following an incubation period of 16 hours (37° C.) cross-link-breaking is detected using an antibody raised against AGE-ribonuclease or with an antibody against BSA. […] Details of the assay are as follows:
1. AGE-BSA stock solutions were prepared as follows. Sodium phosphate buffer (0.4 M) was prepared by dissolving 6 grams of monobasic sodium phosphate in 100 ml of distilled water, 7 grams of dibasic sodium phosphate (0.4 M) in 100 ml of distilled water and adjusting the pH of the dibasic solution to 7.4 with the monobasic solution. Sodium azide (0.02 grams) was added per 100 ml volume to inhibit bacterial growth. The BSA solution was prepared as follows: 400 mg of Type V BSA (bovine serum albumin) was added for each ml of sodium phosphate buffer (above). A 400 mM glucose solution was prepared by dissolving 7.2 grams of dextrose in 100 ml of sodium phosphate buffer (above). The BSA and glucose solutions were mixed 1:1 and incubated at 37° C. for 12 weeks. The pH of the incubation mixture was monitored weekly and adjusted to pH 7.4 if necessary. After 12 weeks, the AGE-BSA solution was dialyzed against PBS for 48 hours with four buffer changes, each at a 1:500 ratio of solution to dialysis buffer. Protein concentration was determined by the micro-Lowry method. The AGE-BSA stock solution was aliquoted and stored at −20° C.
2. Working solutions for crosslinking and breaking studies were prepared as follows. Test compounds were dissolved in PBS and the pH was adjusted to pH 7.4 if necessary. AGE-BSA stock solution was diluted in PBS to measure maximum crosslinking and in the inhibitor solution for testing inhibitory activity of compounds. The concentration of AGE-BSA necessary to achieve the optimum sensitivity was determined by initial titration of each lot of AGE-BSA.
3. Wash buffer (“PBS-Tween”) was, prepared as follows. PBS was prepared by dissolving the following salts in one liter of distilled water: NaCl, 8 grams; KCl, 0.2 gram, KH2PO4. […] Tween-20 was added to a final concentration of 0.05% (vol/vol).
4. Substrates for detection of secondary antibody binding were prepared by diluting the HRP substrate buffer 1:10 in distilled water and mixing with ABTS chromogen 1:50 just prior to use.
1. Biocoat plates were blocked with 300 μl of “Superbloc”. Plates were blocked for one hour at room temperature and were washed with PBS-Tween three times with the Dynatech platewasher before addition of test reagents.
2. Each experiment was set up in the following manner. The first three wells of the Biocoat plate were used for the reagent blank. Fifty microliters of solutions AGE-BSA were added to test wells in triplicate and only PBS in blank wells.

[3] = molecular target: cross-linking of glycated bovine serum albumin (AGE-BSA) to the rat tail tendon collagen-coated 96-well plate (Bos taurus, UniProt P02769); assay: Cross-Linking Inhibition Assay; conditions: for inhibition at 10000 µM: read-out: Relative Cross-link Inhibition (at 10 mM)
Sequence of cross-linking of glycated bovine serum albumin (AGE-BSA) to the rat tail tendon collagen-coated 96-well plate (P02769 25-607): as the sequence (P02769 25-607) above
Method: The following method was used to evaluate the ability of the compounds of the present invention to inhibit the cross-linking of glycated bovine serum albumin (AGE-BSA) to the rat tail tendon collagen-coated 96-well plate.
The blocking solution was removed from the wells by, washing the plate twice with PBS-'Tween 20 solution (0.05% Tween 20) using a NUNq-multiprobe or Dynatech ELISA-plate washer. Cross-linking of AGE-BSA (1 to 10 mg per well depending on the batch of AGE-BSA) to rat tail tendon collagen coated plate was performed with and without the testing ‘compound dissolved in PBS buffer at pH 7.4 at the desired concentrations by the, addition of 50 μl each of the AGE-BSA diluted in PBS or in the solution of test compound at 37° C. for 4 hours.
Unbrowned BSA in PBS buffer with or without testing compound were added to the separate wells as the blanks. The un-cross-linked AGE-BSA was then removed by washing the wells three times with PBS-Tween buffer. The amount of AGE-BSA cross-linked to the tail tendon collagen-coated plate was then quantitated using a polyclonal antibody raised against AGE-RNase. After a one-hour incubation period, AGE antibody was removed by washing 4 times with PBS-Tween.
The bound AGE antibody was then detected with the addition of horseradish peroxidase-conjugated secondary antibody—goat anti-rabbit immunoglobulin and incubation for 30 minutes. […] The reaction was allowed for an additional 15 minutes and the absorbance was read at 410 nm in a Dynatech plate reader.

[4] = Reaction with 1-phenyl-1,2-propanedione
[5] = molecular target: AGE-crosslinks that form when AGE-modified BSA (AGE-BSA) is allowed to react with unmodified, native collagen (Bos taurus, UniProt P02769); assay: Release of BSA from pre-formed AGE-BSA/collagen complexes; assay type: biochemical
Sequence of AGE-crosslinks that form when AGE-modified BSA (AGE-BSA) is allowed to react with unmodified, native collagen (P02769 25-607): as above
Excerpt: Once early, addition products form on proteins, further reactions can ensue to effect a covalent, protein-protein crosslinking reaction. In this regard, a compound of the formula I, N-phenacylthiazolium bromide, was allowed to react with the AGE-crosslinks that form when AGE-modified BSA (AGE-BSA) is allowed to react with unmodified, native collagen. […] Again, this confirmed that a significant portion of the AGE-crosslinks that form under experimental conditions consist of an α-diketone or related structure that is susceptible to cleavage by the advantageous bidentate-type molecules of the compounds of formula I under physiological conditions.

[6] = detection with anti-AGE antibody, read-out: IC50 (mM) Anti-AGE

SMILES | Breaking Anti-AGE ([2]; at 30 mM) | Breaking Anti-BSA ([2]; at 30 mM) | IC50 [3] | inhibition at 10000 µM [3] | further results
Cc1c(CCO)sc[n+]1CC(=O)c1ccc2ccccc2c1.[Br-] [3-(2-(2′-naphthyl)-2-oxoethyl]-4-methyl-5-(2′-hydroxyethyl)-thiazolium bromide] |  |  |  |  | Percent Inhibition (percent breaking of RBC-IgG) [1]: 40 ± 24 @ 19 days %; Breaking Anti-AGE ([2]; at 10 mM): 52%; Breaking Anti-BSA ([2]; at 10 mM): 61%; Relative Cross-link Inhibition (at 10 mM) ([3]; at 10 mM): 61%
Cc1csc[n+]1CC(N)=O.[Br-] [3-(2-amino-2-oxoethyl)-4-methyl-thiazolium bromide] | 89% | 44% | 700 µM |  | 
NC(=O)C[n+]1csc2ccccc21.[Br-] [3-(2-amino-2-oxoethyl)-benzothiazolium bromide] |  |  | 20 µM |  | Breaking Anti-AGE ([2]; concentration not given): 77%; Breaking Anti-BSA ([2]; concentration not given): 65%; IC50 [2, 6]: 0.4 mM
COC(=O)C[n+]1csc(C)c1C.[Br-] [3-(2-methoxy-2-oxoethyl)-4,5-dimethylthiazolium bromide] | 63% | 47% | 480 µM |  | 
COC(=O)C[n+]1cscc1C.[Br-] [3-(2-methoxy-2-oxoethyl)-4-methylthiazolium bromide] | 54% | 51% |  | 58% | 
COC(=O)C[n+]1csc(C)c1.[Br-] [3-(2-methoxy-2-oxoethyl)-5-methyl-thiazolium bromide] | 72% | 27% | 3200 µM |  | 
COC(=O)C[n+]1csc2ccccc21.[Br-] [3-(2-methoxy-2-oxoethyl)-benzothiazolium bromide] | 66% | 37% | > 10000 µM | 35% | 
Cc1sc[n+](CC(=O)c2ccccc2)c1C.[Br-] [3-(2-phenyl-2-oxoethyl)-4,5-dimethylthiazolium bromide] | 56%/ND (30) |  |  | 37% | 
Cc1c(CCO)sc[n+]1CC(=O)c1ccccc1.[Br-] [3-(2-phenyl-2-oxoethyl)-4-methyl-5-(2-hydroxyethyl)-thiazolium bromide] | 67% | 13% | > 10000 µM | 36% | 
C=Cc1sc[n+](CC(=O)c2ccccc2)c1C.[Br-] [3-(2-phenyl-2-oxoethyl)-4-methyl-5-vinyl-thiazolium bromide] |  |  |  |  | Percent Inhibition (percent breaking of RBC-IgG) [1]: 58 ± 21 ® 19 days %; Breaking Anti-AGE ([2]; at 1 mM): 62%; Breaking Anti-BSA ([2]; at 1 mM): 82%; IC50 ([2]; detection with anti-BSA antibody, read-out: IC50 (mM) Anti-BSA): 0.1 mM
Cc1csc[n+]1CC(=O)c1ccccc1.[Br-] [3-(2-phenyl-2-oxoethyl)-4-methylthiazolium bromide] | 68% | 66% | 5600 µM |  | 
O=C(C[n+]1ccsc1)c1ccccc1.[Br-] [3-(2-phenyl-2-oxoethyl)thiazolium bromide] |  |  | 11100 µM | 34% | reaction with 1-phenyl-1,2-propanedione to produce benzoic acid [4]: rapid and readily proceeded; Breaking Anti-AGE ([2]; concentration not given): 73%; Breaking Anti-BSA ([2]; concentration not given): 98%; release of BSA from the pre-formed AGE-mediated complexes [5]: concentration-dependent release of BSA
O=C(O)C[n+]1csc2ccccc21.[Br-] [3-(carboxymethyl)-benzothiazolium bromide] | 63.7% | 17.9% |  | 16% | 
Cc1c[n+](CC(=O)c2cc(C(C)(C)C)c(O)c(C(C)(C)C)c2)cs1 [3-[2-(3′,5′-di-tert-butyl-4′-hydroxyphenyl)-2-oxoethyl)-5-methyl-thiazolium bromide] |  |  | 780 µM |  | Percent Inhibition (percent breaking of RBC-IgG) [1]: 65 ± 15 @ 19 days %; Breaking Anti-AGE ([2]; at 1 mM): 65%; Breaking Anti-BSA ([2]; at 1 mM): 69%; Breaking Anti-AGE ([2]; at 10 mM): 48%; Breaking Anti-BSA ([2]; at 10 mM): 49%; IC50 [2, 6]: 3 mM; inhibition at 1000 µM ([3]; read-out: Relative Cross-link Inhibition): 69%
Cc1csc[n+]1CC(=O)c1cc(C(C)(C)C)c(O)c(C(C)(C)C)c1.[Br-] [3-[2-(3′,5′-di-tert-butyl-4′-hydroxyphenyl)-2-oxoethyl]-4-methyl-thiazolium bromide] |  |  |  |  | Breaking Anti-AGE ([2]; at 0.3 mM): 14%; Breaking Anti-BSA ([2]; at 0.3 mM): 2%; Relative Cross-link Inhibition ([3]; 0.3 mM): 24% @ 0.3 mM
Cc1c(CCOCc2c(Cl)cccc2Cl)sc[n+]1N.Cc1cc(C)c(S(=O)(=O)[O-])c(C)c1 [3-amino-4-methyl-5-(2(2′,6′-dichlorobenzyloxy)ethyl]-thiazolium mesitylenesulfonate] |  |  |  |  | Breaking Anti-AGE ([2]; at 10 mM): 31%; Breaking Anti-BSA ([2]; at 10 mM): 54%; Relative Cross-link Inhibition ([3]; 3 mM): 26.5% (3 mm)
